Test results reported in US7396837B2, “Antitumoral analogs of lamellarins” (Pharma Mar, S.A.U., priority 2002, dated 2008).

test system: HeLa; experiment: SRB colorimetric cell growth inhibition assay, HeLa; type: cell-based; details: Homo sapiens, HeLa; GI=growth inhibition; read-out: GI50 HELA
Outline: (§1)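 Growth inhibition (GI), cytostatic total growth inhibition (TGI) and cytotoxic cell-kill (LC) parameters were calculated from SRB-stained cultures held under constant compound exposure, triplicates averaged.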

| SMILES | GI50 [nM] |
| --- | --- |
| COc1cc(-c2c3c4cc(OC)c(OC(=O)[C@H](C)N)cc4oc(=O)c3n3ccc4cc(OC(=O)[C@H](C)N)c(OC)cc4c23)ccc1OC(=O)[C@H](C)N [Compound 199] | 29.9 |

same assay, conditions: Homo sapiens, HeLa; cell killing (cytotoxic effect); read-out: LC50 HELA

| SMILES | CC50 [nM] |
| --- | --- |
| COc1cc(-c2c3c4cc(OC)c(OC(=O)[C@H](C)N)cc4oc(=O)c3n3ccc4cc(OC(=O)[C@H](C)N)c(OC)cc4c23)ccc1OC(=O)[C@H](C)N [Compound 199] | 651 |

same assay, conditions: Homo sapiens, HeLa; total growth inhibition (cytostatic effect); read-out: TGI HELA

| SMILES | IC (TGI) [nM] |
| --- | --- |
| COc1cc(-c2c3c4cc(OC)c(OC(=O)[C@H](C)N)cc4oc(=O)c3n3ccc4cc(OC(=O)[C@H](C)N)c(OC)cc4c23)ccc1OC(=O)[C@H](C)N [Compound 199] | 199 |

test system: IGROV-ET; experiment: SRB colorimetric cell growth inhibition assay, IGROV-ET (ET-743 resistant); type: cell-based; details: Homo sapiens, IGROV-ET; GI=growth inhibition; read-out: GI50 IGROV-ET
Outline: as §1

| SMILES | GI50 [nM] |
| --- | --- |
| COc1cc(-c2c3c4cc(OC)c(OC(=O)[C@H](C)N)cc4oc(=O)c3n3ccc4cc(OC(=O)[C@H](C)N)c(OC)cc4c23)ccc1OC(=O)[C@H](C)N [Compound 199] | 31.3 |

same assay, conditions: Homo sapiens, IGROV-ET; cell killing (cytotoxic effect); read-out: LC50 IGROV-ET

| SMILES | CC50 [nM] |
| --- | --- |
| COc1cc(-c2c3c4cc(OC)c(OC(=O)[C@H](C)N)cc4oc(=O)c3n3ccc4cc(OC(=O)[C@H](C)N)c(OC)cc4c23)ccc1OC(=O)[C@H](C)N [Compound 199] | 12200 |

same assay, conditions: Homo sapiens, IGROV-ET; total growth inhibition (cytostatic effect); read-out: TGI IGROV-ET

| SMILES | IC (TGI) [nM] |
| --- | --- |
| COc1cc(-c2c3c4cc(OC)c(OC(=O)[C@H](C)N)cc4oc(=O)c3n3ccc4cc(OC(=O)[C@H](C)N)c(OC)cc4c23)ccc1OC(=O)[C@H](C)N [Compound 199] | 159 |

test system: LoVo; experiment: SRB colorimetric cell growth inhibition assay, LoVo; type: cell-based; details: Homo sapiens, LoVo; GI=growth inhibition; read-out: GI50 LOVO
Outline: as §1

| SMILES | GI50 [nM] |
| --- | --- |
| COc1cc(-c2c3c4cc(OC)c(OC(=O)[C@H](C)N)cc4oc(=O)c3n3ccc4cc(OC(=O)[C@H](C)N)c(OC)cc4c23)ccc1OC(=O)[C@H](C)N [Compound 199] | 128 |

same assay, conditions: Homo sapiens, LoVo; cell killing (cytotoxic effect); read-out: LC50 LOVO

| SMILES | CC50 [nM] |
| --- | --- |
| COc1cc(-c2c3c4cc(OC)c(OC(=O)[C@H](C)N)cc4oc(=O)c3n3ccc4cc(OC(=O)[C@H](C)N)c(OC)cc4c23)ccc1OC(=O)[C@H](C)N [Compound 199] | 879 |

same assay, conditions: Homo sapiens, LoVo; total growth inhibition (cytostatic effect); read-out: TGI LOVO

| SMILES | IC (TGI) [nM] |
| --- | --- |
| COc1cc(-c2c3c4cc(OC)c(OC(=O)[C@H](C)N)cc4oc(=O)c3n3ccc4cc(OC(=O)[C@H](C)N)c(OC)cc4c23)ccc1OC(=O)[C@H](C)N [Compound 199] | 335 |

test system: SK-MEL-28; experiment: SRB colorimetric cell growth inhibition assay, SK-MEL-28; type: cell-based; details: Homo sapiens, SK-MEL-28, MEL-28; GI=growth inhibition; read-out: GI50 MEL-28
Outline: as §1

| SMILES | GI50 [nM] |
| --- | --- |
| COc1cc(-c2c3c4cc(OC)c(OC(=O)[C@H](C)N)cc4oc(=O)c3n3ccc4cc(OC(=O)[C@H](C)N)c(OC)cc4c23)ccc1OC(=O)[C@H](C)N [Compound 199] | 32.6 |

same assay, conditions: Homo sapiens, SK-MEL-28, MEL-28; cell killing (cytotoxic effect); read-out: LC50 MEL-28

| SMILES | CC50 [nM] |
| --- | --- |
| COc1cc(-c2c3c4cc(OC)c(OC(=O)[C@H](C)N)cc4oc(=O)c3n3ccc4cc(OC(=O)[C@H](C)N)c(OC)cc4c23)ccc1OC(=O)[C@H](C)N [Compound 199] | 7040 |

same assay, conditions: Homo sapiens, SK-MEL-28, MEL-28; total growth inhibition (cytostatic effect); read-out: TGI MEL-28

| SMILES | IC (TGI) [nM] |
| --- | --- |
| COc1cc(-c2c3c4cc(OC)c(OC(=O)[C@H](C)N)cc4oc(=O)c3n3ccc4cc(OC(=O)[C@H](C)N)c(OC)cc4c23)ccc1OC(=O)[C@H](C)N [Compound 199] | 151 |

test system: HT-29; experiment: SRB colorimetric cell growth inhibition assay, HT-29; type: cell-based; details: Homo sapiens, HT-29, HT-29; GI=growth inhibition; read-out: GI50 HT-29
Outline: as §1

| SMILES | GI50 [nM] |
| --- | --- |
| COc1cc(-c2c3c4cc(OC)c(OC(=O)[C@H](C)N)cc4oc(=O)c3n3ccc4cc(OC(=O)[C@H](C)N)c(OC)cc4c23)ccc1OC(=O)[C@H](C)N [Compound 199] | 2140 |

same assay, conditions: Homo sapiens, HT-29, HT-29; cell killing (cytotoxic effect); read-out: LC50 HT-29

| SMILES | CC50 [nM] |
| --- | --- |
| COc1cc(-c2c3c4cc(OC)c(OC(=O)[C@H](C)N)cc4oc(=O)c3n3ccc4cc(OC(=O)[C@H](C)N)c(OC)cc4c23)ccc1OC(=O)[C@H](C)N [Compound 199] | 12200 |

same assay, conditions: Homo sapiens, HT-29, HT-29; total growth inhibition (cytostatic effect); read-out: TGI HT-29

| SMILES | IC (TGI) [nM] |
| --- | --- |
| COc1cc(-c2c3c4cc(OC)c(OC(=O)[C@H](C)N)cc4oc(=O)c3n3ccc4cc(OC(=O)[C@H](C)N)c(OC)cc4c23)ccc1OC(=O)[C@H](C)N [Compound 199] | 6710 |

test system: DU-145; experiment: SRB colorimetric cell growth inhibition assay, DU-145; type: cell-based; details: Homo sapiens, DU-145, DU-145; GI=growth inhibition; read-out: GI50 DU-145
Outline: as §1

| SMILES | GI50 [nM] |
| --- | --- |
| COc1cc(-c2c3c4cc(OC)c(OC(=O)[C@H](C)N)cc4oc(=O)c3n3ccc4cc(OC(=O)[C@H](C)N)c(OC)cc4c23)ccc1OC(=O)[C@H](C)N [Compound 199] | 3.73 |

same assay, conditions: Homo sapiens, DU-145, DU-145; cell killing (cytotoxic effect); read-out: LC50 DU-145

| SMILES | CC50 [nM] |
| --- | --- |
| COc1cc(-c2c3c4cc(OC)c(OC(=O)[C@H](C)N)cc4oc(=O)c3n3ccc4cc(OC(=O)[C@H](C)N)c(OC)cc4c23)ccc1OC(=O)[C@H](C)N [Compound 199] | 37.2 |

same assay, conditions: Homo sapiens, DU-145, DU-145; total growth inhibition (cytostatic effect); read-out: TGI DU-145

| SMILES | IC (TGI) [nM] |
| --- | --- |
| COc1cc(-c2c3c4cc(OC)c(OC(=O)[C@H](C)N)cc4oc(=O)c3n3ccc4cc(OC(=O)[C@H](C)N)c(OC)cc4c23)ccc1OC(=O)[C@H](C)N [Compound 199] | 9.93 |

test system: A-549; experiment: SRB colorimetric cell growth inhibition assay, A-549; type: cell-based; details: Homo sapiens, A549, A-549; GI=growth inhibition; read-out: GI50 A-549
Outline: as §1

| SMILES | GI50 [nM] |
| --- | --- |
| COc1cc(-c2c3c4cc(OC)c(OC(=O)[C@H](C)N)cc4oc(=O)c3n3ccc4cc(OC(=O)[C@H](C)N)c(OC)cc4c23)ccc1OC(=O)[C@H](C)N [Compound 199] | 60.6 |

same assay, conditions: Homo sapiens, A549, A-549; cell killing (cytotoxic effect); read-out: LC50 A-549

| SMILES | CC50 [nM] |
| --- | --- |
| COc1cc(-c2c3c4cc(OC)c(OC(=O)[C@H](C)N)cc4oc(=O)c3n3ccc4cc(OC(=O)[C@H](C)N)c(OC)cc4c23)ccc1OC(=O)[C@H](C)N [Compound 199] | 12200 |

same assay, conditions: Homo sapiens, A549, A-549; total growth inhibition (cytostatic effect); read-out: TGI A-549

| SMILES | IC (TGI) [nM] |
| --- | --- |
| COc1cc(-c2c3c4cc(OC)c(OC(=O)[C@H](C)N)cc4oc(=O)c3n3ccc4cc(OC(=O)[C@H](C)N)c(OC)cc4c23)ccc1OC(=O)[C@H](C)N [Compound 199] | 1330 |
